From PubChem BioAssay (NCI)
Values joined by “and” are separate entries in the source; they are usually repeats but may differ in a detail not shown here. Identical values can stand only once.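 1) Cells in 96-well plates. 2) Compound, 48 h, 5 concentrations. 3) Linear interpolation between surrounding doses. 4) Unreached endpoint = highest concentration. GI50 marks 50% less growth. The concentration for full growth arrest is given as TGI.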

Columns and labels:
Assay in all cases: NCI tumour cell line growth inhibition, 48 h
[1] = test system: CCRF-CEM leukemia
[2] = test system: SF-295 CNS
[3] = test system: HOP-62 NSCLC
[4] = test system: ACHN renal
[5] = test system: OVCAR-5 ovarian
[6] = test system: LOX IMVI melanoma
[7] = test system: COLO 205 colon
[8] = test system: NCI-H460 lung
[9] = test system: TK-10 renal
[10] = test system: HL-60(TB) leukemia

Q: With `COC(=O)C1=C(c2ccc(OC)c(OC)c2)OC(c2ccc(OC)c(OC)c2)C1` (stereo not given) as the molecule, how does the TGI [1] read?
A: > 100 µM

Q: What about the TGI [2] of the same molecule?
A: > 100 µM

Q: And the TGI [3]?
A: > 100 µM

Q: And the TGI [4]?
A: > 100 µM

Q: And the TGI [5]?
A: > 100 µM

Q: What about the TGI [6] of the same molecule?
A: > 100 µM

Q: And the TGI [7]?
A: 36.4 µM

Q: What about the TGI [8] of the same molecule?
A: > 100 µM

Q: And the TGI [9]?
A: > 100 µM

Q: What about the TGI [10] of the same molecule?
A: 44.6 µM

Q: With `COc1cc(/C=C/c2ccncc2)cc(OC)c1OC` as the molecule, how does the TGI [1] read?
A: > 100 µM

Q: What about the TGI [2] of the same molecule?
A: > 100 µM

Q: And the TGI [3]?
A: > 100 µM

Q: What about the TGI [4] of the same molecule?
A: > 100 µM

Q: And the TGI [5]?
A: 97.9 µM

Q: And the TGI [6]?
A: > 100 µM

Q: And the TGI [7]?
A: > 100 µM

Q: And the TGI [8]?
A: > 100 µM

Q: What about the TGI [9] of the same molecule?
A: > 100 µM

Q: What about the TGI [10] of the same molecule?
A: 97.8 µM

Q: With `COc1ccc(C(=O)c2cc(OC)c(OC)c(OC)c2)cc1` as the molecule, how does the TGI [1] read?
A: > 100 µM

Q: And the TGI [2]?
A: 0.196 µM

Q: And the TGI [3]?
A: > 100 µM

Q: And the TGI [4]?
A: > 91.3 µM

Q: And the TGI [5]?
A: > 100 µM

Q: And the TGI [6]?
A: > 82.2 µM

Q: What about the TGI [7] of the same molecule?
A: 3.69 µM

Q: What about the TGI [8] of the same molecule?
A: 17.2 µM

Q: What about the TGI [9] of the same molecule?
A: > 100 µM

Q: And the TGI [10]?
A: 13.2 µM

Q: Which results are given for `CCN1CCN(Cc2ccc(-c3cc4c(N[C@H](C)c5ccccc5)ncnc4[nH]3)cc2)CC1`?
A: GI50 [1]: 2.41 µM and 3.23 µM; TGI [1]: 6.43 µM and > 10 µM; GI50 [2]: 1.62 µM and 3.09 µM; TGI [2]: 4.2 µM and > 10 µM; GI50 [3]: 3.52 µM and 3.53 µM; TGI [3]: 18.3 µM and > 10 µM; GI50 [4]: 0.0625 µM and 0.162 µM; TGI [4]: 12.5 µM and > 10 µM; GI50 [5]: 0.708 µM and 1.61 µM; TGI [5]: 23.9 µM and > 10 µM; GI50 [6]: 1.51 µM and 1.24 µM; TGI [6]: 3.06 µM and 2.78 µM; GI50 [7]: 1.9 µM and 1.73 µM; TGI [7]: 3.6 µM and 3.52 µM; GI50 [8]: 5.55 µM and 6.86 µM; TGI [8]: 23.3 µM and > 10 µM; GI50 [9]: 0.111 µM and 0.183 µM; TGI [9]: 4.43 µM and > 10 µM; GI50 [10]: 2.83 µM and 4 µM; TGI [10]: 7.91 µM and > 10 µM

Q: What does the source list for `Cc1c2cc[n+](C)cc2c(C)c2c1sc1ccccc12`?
A: TGI [1]: 13.8 µM; TGI [2]: 0.783 µM; TGI [3]: 1.76 µM; TGI [4]: 33.7 µM; TGI [5]: 15.6 µM; TGI [6]: 22.1 µM; TGI [7]: 7.71 µM; TGI [8]: 6.02 µM; TGI [9]: 68.5 µM; TGI [10]: 28.4 µM

Q: How did the GI50 [1] turn out when `F` was run?
A: 4540 µM

Q: And the TGI [1]?
A: > 6870 µM

Q: And the GI50 [2]?
A: 2050 µM

Q: And the TGI [2]?
A: 6380 µM

Q: What about the GI50 [3] of the same molecule?
A: 2560 µM

Q: What about the TGI [3] of the same molecule?
A: > 6870 µM

Q: And the GI50 [4]?
A: 3050 µM

Q: And the TGI [4]?
A: > 6870 µM

Q: And the GI50 [5]?
A: 2560 µM

Q: What about the TGI [5] of the same molecule?
A: > 6870 µM

Q: What about the GI50 [6] of the same molecule?
A: 2290 µM

Q: And the TGI [6]?
A: > 6870 µM

Q: What about the GI50 [7] of the same molecule?
A: 2830 µM

Q: What about the TGI [7] of the same molecule?
A: > 6870 µM

Q: What about the GI50 [8] of the same molecule?
A: 5410 µM

Q: What about the TGI [8] of the same molecule?
A: > 6870 µM

Q: What about the GI50 [9] of the same molecule?
A: 3400 µM

Q: What about the TGI [9] of the same molecule?
A: > 6870 µM

Q: What about the GI50 [10] of the same molecule?
A: 2360 µM

Q: And the TGI [10]?
A: > 6870 µM

Q: For `C[C@@H]1COCCN1c1cc(C2([S@](C)(=N)=O)CC2)nc(-c2ccnc3[nH]ccc23)n1`, which GI50 [1] is on record?
A: 1.21 µM and 1.11 µM

Q: And the TGI [1]?
A: > 29 µM

Q: What about the GI50 [2] of the same molecule?
A: 2.6 µM and 3.21 µM

Q: What about the TGI [2] of the same molecule?
A: 32.9 µM and > 10 µM

Q: What about the GI50 [3] of the same molecule?
A: 2.86 µM and 1.75 µM

Q: What about the TGI [3] of the same molecule?
A: 52.1 µM and > 10 µM

Q: And the GI50 [4]?
A: 0.818 µM and 1.65 µM

Q: What about the TGI [4] of the same molecule?
A: > 100 µM

Q: And the GI50 [5]?
A: 5.03 µM and 6.98 µM

Q: And the TGI [5]?
A: 99.8 µM and > 10 µM

Q: What about the GI50 [6] of the same molecule?
A: 0.903 µM and 2.75 µM

Q: What about the TGI [6] of the same molecule?
A: 12.7 µM and > 10 µM

Q: What about the GI50 [7] of the same molecule?
A: 6.18 µM and > 10 µM

Q: What about the TGI [7] of the same molecule?
A: 43.1 µM and > 10 µM

Q: What about the GI50 [8] of the same molecule?
A: 1.04 µM and 2.1 µM

Q: What about the TGI [8] of the same molecule?
A: > 100 µM

Q: And the GI50 [9]?
A: 3.69 µM and 1.68 µM

Q: What about the TGI [9] of the same molecule?
A: > 59.7 µM

Q: And the GI50 [10]?
A: 1.95 µM and 3.39 µM

Q: What about the TGI [10] of the same molecule?
A: 12.8 µM and > 10 µM

Q: Which GI50 [1] does the source give for `COc1cc2c(cc1O)CC[C@@H]1[C@@H]2CC[C@]2(C)[C@@H](NCCN(C)C)CC[C@@H]12` here?
A: 0.156 µM

Q: And the TGI [1]?
A: 0.612 µM

Q: What about the GI50 [2] of the same molecule?
A: 0.163 µM

Q: What about the TGI [2] of the same molecule?
A: 0.61 µM

Q: What about the GI50 [3] of the same molecule?
A: 0.194 µM

Q: What about the TGI [3] of the same molecule?
A: 0.717 µM

Q: And the GI50 [4]?
A: 0.459 µM

Q: And the TGI [4]?
A: 0.991 µM

Q: And the GI50 [5]?
A: 0.314 µM

Q: What about the TGI [5] of the same molecule?
A: 0.856 µM

Q: And the GI50 [6]?
A: 0.11 µM

Q: And the TGI [6]?
A: 0.405 µM

Q: What about the GI50 [7] of the same molecule?
A: 0.107 µM

Q: What about the TGI [7] of the same molecule?
A: 0.4 µM

Q: What about the GI50 [8] of the same molecule?
A: 0.324 µM

Q: And the TGI [8]?
A: 0.823 µM

Q: What about the GI50 [9] of the same molecule?
A: 0.467 µM

Q: What about the TGI [9] of the same molecule?
A: 0.932 µM

Q: And the GI50 [10]?
A: 0.173 µM

Q: And the TGI [10]?
A: 0.675 µM

Q: Which results are given for `CC(=O)N[C@@H](Cc1ccc(OP(=O)(O)O)cc1)C(=O)N[C@H]1CCC(=O)N2CCC[C@@H](C(=O)NCc3ccc(Cl)cc3)N2C1=O`?
A: GI50 [1]: > 25 µM; TGI [1]: > 25 µM; GI50 [2]: > 25 µM; TGI [2]: > 25 µM; GI50 [3]: > 25 µM; TGI [3]: > 25 µM; GI50 [4]: > 25 µM; TGI [4]: > 25 µM; GI50 [5]: > 25 µM; TGI [5]: > 25 µM; GI50 [6]: > 25 µM; TGI [6]: > 25 µM; GI50 [7]: > 25 µM; TGI [7]: > 25 µM; GI50 [8]: > 25 µM; TGI [8]: > 25 µM; GI50 [9]: > 25 µM; TGI [9]: > 25 µM; GI50 [10]: > 25 µM; TGI [10]: > 25 µM

Q: Which TGI [1] does the source give for `O=C(Nc1c(O)[nH]c(=S)[nH]c1=O)c1ccccc1F` here?
A: > 100 µM

Q: And the TGI [2]?
A: > 100 µM

Q: What about the TGI [3] of the same molecule?
A: > 100 µM

Q: And the TGI [4]?
A: > 100 µM

Q: What about the TGI [5] of the same molecule?
A: > 100 µM

Q: And the TGI [6]?
A: > 100 µM

Q: And the TGI [7]?
A: > 100 µM

Q: What about the TGI [8] of the same molecule?
A: > 100 µM

Q: What about the TGI [9] of the same molecule?
A: > 100 µM

Q: What about the TGI [10] of the same molecule?
A: > 100 µM

Q: For `CN(C)c1ccc2c(=O)c3ccccc3oc2n1`, which TGI [1] is on record?
A: > 100 µM

Q: What about the TGI [2] of the same molecule?
A: > 100 µM

Q: What about the TGI [3] of the same molecule?
A: > 100 µM

Q: And the TGI [4]?
A: > 100 µM

Q: And the TGI [5]?
A: > 100 µM

Q: And the TGI [6]?
A: > 100 µM

Q: What about the TGI [7] of the same molecule?
A: > 100 µM

Q: And the TGI [8]?
A: > 100 µM

Q: What about the TGI [9] of the same molecule?
A: > 100 µM

Q: And the TGI [10]?
A: > 100 µM

Q: How did the GI50 [1] turn out when `Cc1cccc(NC(=O)CCc2ccc(N3C(N)=NC(N)=NC3(C)C)cc2)c1` was run?
A: 1.07 µM

Q: What about the TGI [1] of the same molecule?
A: > 100 µM

Q: What about the GI50 [2] of the same molecule?
A: 2.56 µM

Q: And the TGI [2]?
A: > 76.3 µM

Q: And the GI50 [3]?
A: 16.9 µM

Q: What about the TGI [3] of the same molecule?
A: > 100 µM

Q: And the GI50 [4]?
A: > 100 µM

Q: And the TGI [4]?
A: > 100 µM

Q: What about the GI50 [5] of the same molecule?
A: > 37.2 µM

Q: And the TGI [5]?
A: > 100 µM

Q: What about the GI50 [6] of the same molecule?
A: 0.654 µM

Q: What about the TGI [6] of the same molecule?
A: > 100 µM

Q: And the GI50 [7]?
A: 7.8 µM

Q: And the TGI [7]?
A: > 100 µM

Q: And the GI50 [8]?
A: 0.454 µM

Q: What about the TGI [8] of the same molecule?
A: > 100 µM

Q: And the GI50 [9]?
A: 18.2 µM

Q: And the TGI [9]?
A: > 100 µM

Q: What about the GI50 [10] of the same molecule?
A: 0.641 µM

Q: And the TGI [10]?
A: > 100 µM
